Results: patent US8703437B2, “Fluorogenic sensors for phospholipase C isozymes” (The University of North Carolina at Chapel Hill, priority 2010, dated 2014)

Molecular target: T1, PLC-γ1 (Homo sapiens, UniProt P19174)
T1 construct: addition of 4 ng of purified full-length wild-type PLC-γ1; made in house; host or cells: insect cells
T1 sequence (P19174 1-1290): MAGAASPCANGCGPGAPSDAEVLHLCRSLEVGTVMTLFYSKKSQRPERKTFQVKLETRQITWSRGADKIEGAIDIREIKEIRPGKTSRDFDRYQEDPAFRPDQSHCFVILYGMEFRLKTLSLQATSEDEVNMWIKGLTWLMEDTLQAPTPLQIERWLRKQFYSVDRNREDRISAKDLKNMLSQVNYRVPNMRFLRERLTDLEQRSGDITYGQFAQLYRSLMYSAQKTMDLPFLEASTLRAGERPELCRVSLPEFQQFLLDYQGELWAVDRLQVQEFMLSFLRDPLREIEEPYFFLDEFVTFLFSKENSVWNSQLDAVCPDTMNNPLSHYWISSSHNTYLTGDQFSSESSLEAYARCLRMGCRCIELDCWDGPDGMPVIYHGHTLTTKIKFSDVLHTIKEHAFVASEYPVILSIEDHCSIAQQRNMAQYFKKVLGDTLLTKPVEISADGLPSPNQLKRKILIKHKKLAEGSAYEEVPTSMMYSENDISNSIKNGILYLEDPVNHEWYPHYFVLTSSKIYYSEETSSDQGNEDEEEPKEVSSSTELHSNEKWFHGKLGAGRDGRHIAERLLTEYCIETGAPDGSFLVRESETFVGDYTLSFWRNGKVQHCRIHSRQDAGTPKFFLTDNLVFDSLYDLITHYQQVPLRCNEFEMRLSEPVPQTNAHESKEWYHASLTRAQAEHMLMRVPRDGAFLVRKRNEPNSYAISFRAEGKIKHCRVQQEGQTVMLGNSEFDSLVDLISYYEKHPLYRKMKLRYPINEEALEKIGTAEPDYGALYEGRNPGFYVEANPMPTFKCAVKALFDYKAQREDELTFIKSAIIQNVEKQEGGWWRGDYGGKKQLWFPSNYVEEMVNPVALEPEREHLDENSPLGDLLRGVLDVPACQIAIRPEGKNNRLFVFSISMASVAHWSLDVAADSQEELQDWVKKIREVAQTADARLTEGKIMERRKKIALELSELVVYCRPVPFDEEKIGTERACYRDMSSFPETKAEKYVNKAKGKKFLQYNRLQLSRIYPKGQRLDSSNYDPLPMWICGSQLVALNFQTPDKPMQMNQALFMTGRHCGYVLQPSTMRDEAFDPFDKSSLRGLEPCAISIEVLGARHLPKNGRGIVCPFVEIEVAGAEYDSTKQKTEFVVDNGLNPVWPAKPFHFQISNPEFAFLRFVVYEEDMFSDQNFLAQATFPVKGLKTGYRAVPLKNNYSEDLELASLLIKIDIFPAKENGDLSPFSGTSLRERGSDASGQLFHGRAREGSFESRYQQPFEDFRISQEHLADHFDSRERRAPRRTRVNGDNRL
Test: Kinetic studies with PLC-γ1
Format: biochemical
Settings: endogenous substrate PIP2, [3H]PtdIns-(4,5)P2, liquid scintillation counting, 30° C.
Protocol: For comparison, the endogenous substrate, PIP2, was also applied in the enzymatic reaction under similar conditions.
The assays were started by the addition of 4 ng of purified full-length wild-type PLC-γ1. The reaction mixtures were then incubated at 30° C., and fluorescence was measured continuously as described above. For kinetic studies with the endogenous PIP2, a mixture of PtdIns-(4,5)P2 (300 μM, Avanti Polar Lipids) and ˜10,000 cpm of [^3H]PtdIns-(4,5)P2 was dried under a stream of nitrogen and resuspended in 0.5% cholate. The resulting lipid stock was diluted to obtain final assay conditions with either 280, 160, 80, 24, or 8 μM PtdIns(4,5)P2 in the same buffer as described above in a final volume of 60 μL. Assays were initiated by the addition of 17 ng of purified full-length wild-type PLC-γ1. After incubation at 30° C. at time intervals between 0-8 min, reactions were stopped by the addition of 200 μL of 10% (v/v) trichloroacetic acid (TCA) and 100 μL of 10 mg/mL BSA to precipitate uncleaved lipids and protein. Centrifugation of the reaction mixture isolated soluble [^3H]Ins(1,4,5)P3, which was quantified using liquid scintillation counting.

With “phosphatidylinositol 4,5-bisphosphate [PIP2]” the Km was 28 ± 2.6 µM and the Vmax was 2.7 ± 0.07 pmol/min/ng.
